Results on one molecule are retold here after PMC6325200, “Effects of Microplate Type and Broth Additives on Microdilution MIC Susceptibility Assays” (Antimicrobial Agents and Chemotherapy, 2018).

Each structure is given as a SMILES string. Values after ≈ are worked out from the molar mass of the structure shown. Like-named read-outs stand apart in the source and are kept apart here.

One series concerns MRSA ATCC 43300. As to conditions: n = 2. The procedure: (§1) A positive control of a row of just the bacteria and a negative control of only the medium were included for every plate tested.
(§2) The compounds along with standard antibiotics were serially diluted 2-fold across the 96-well plates. […] A sample of each culture was then diluted 40-fold in fresh MH broth (in presence and absence of Tween) and incubated at 37°C for 2 to 3 h.
For experiments in the presence of surfactant, 2% beractant (25 mg/ml) was added to the mid-log-phase cultures and mixed gently and added to all the 96-well plates. For experiments in the presence of serum, a mixture of 50% of human serum along with 50% MHB was prepared and used throughout the experiment.

For a further series, the system named is S. aureus ATCC 29123. Conditions: cited from earlier work. The protocol:
The majority of antibiotic stock solutions for testing are prepared in water, phosphate buffer, or pH-adjusted aqueous solution (106 out of 139 reported in CLSI M100 [see Table 6A, “Solvents and diluents for preparation of stock solutions of antimicrobial agents”]) ([3]). […] Furthermore, the CLSI reference MIC quality control range tabulated for dalbavancin an ...

The next series relates to E. faecalis ATCC 29212. The experiment in a line: microbe, parasite or virus in culture. Conditions: Corning NBS; MHB +T80; n = 2. The procedure: as §1, §2
Series [1] deals with S. aureus GISA NRS 2; ATCC 700698. The experiment in a line: microbe, parasite or virus in culture. As to conditions: Corning NBS; MHB -T80; n = 2. The protocol: as §1, §2
Another series concerns S. pyogenes ATCC 12344. As to conditions: ATCC 12344. The protocol:
as §1, §2

Another series deals with MRSA. As to conditions: literature value; cited from earlier work. From the text: TABLE 1 Literature MIC values for tested antibiotics | column: MIC (µg/ml) (reference[s]) / MRSA
The conditions of series [2]: estimated; cited from earlier work. From the text:
Other assay additives can affect MIC values. […] This in turn translates into reduced ...

The half-life is how long it takes for the measured level to halve. For the molecule `CN[C@H]1C(=O)N[C@@H]2Cc3ccc(cc3)Oc3cc4cc(c3O[C@@H]3O[C@H](C(=O)O)[C@@H](O)[C@H](O)[C@H]3NC(=O)CCCCCCCCC(C)C)Oc3ccc(cc3Cl)[C@@H](O)[C@@H]3NC(=O)[C@H](NC(=O)[C@@H]4NC(=O)[C@@H](NC2=O)c2cc(cc(O)c2Cl)Oc2cc1ccc2O)c1ccc(O)c(c1)-c1c(O[C@H]2O[C@H](CO)[C@@H](O)[C@H](O)[C@@H]2O)cc(O)cc1[C@@H](C(=O)NCCCN(C)C)NC3=O` [Dalbavancin, dalbavancin], the MIC in the series on MRSA ATCC 43300 (Corning flat TC plate, MHB −T80, no additive) is 4 µg/mL (≈ 2.2 µM); in the series with MRSA ATCC 43300 (Trek PS, MH + 2% LHB, 2% LS) it was 0.125 µg/mL; in the series with MRSA ATCC 43300 (Trek PS, MH + 2% LHB, no additive) it was 0.125 µg/mL; in the series on S. aureus ATCC 29123 (CLSI-consistent value, 0.002% polysorbate 80), 0.06 µg/mL (≈ 0.033 µM); in the series on S. aureus ATCC 29123 (dilutions in contact with plastic for as little as 30 min before inoculation with surfactant-containing media), 2 to 8 µg/mL; against E. faecalis ATCC 29212, 0.125 µg/mL (≈ 0.0688 µM). The MIC in series [1] was 0.125 µg/mL (≈ 0.0688 µM); in the series on S. pyogenes ATCC 12344, ≤ 0.003 µg/mL. For the same molecule, the “MIC (literature)” value in the series on MRSA is 0.06 ([68], [69]) µg/ml. The half-life in series [2] is 220 to 288 h.
